Source: PubChem BioAssay AID276 (DTP/NCI, 2004)
“And” between values parts separate entries of the source, which are not always exact repeats. Equal values may be shown once. Toxic doses and inconclusive results are not listed. Rule for the calls: active = survival T/C of 150% or more; inactive = T/C below 125% in these data.

Test system: B6C3F1 mice, Lewis lung carcinoma iv, survival T/C
Test: NCI In Vivo Anticancer Drug Screen. Data for tumor model Lewis Lung Carcinoma (intravenous) in B6C3F1 mice
Settings: endpoint: median survival time, schedule: Q01DX009 (ip), higher = longer survival
In short: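 Tumors were transplanted into mice, which were then dosed with compound or vehicle. Survival was recorded in each group, and the treated figure was divided by the control figure.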

[1] = dose: 12.5 mg/kg/injection, vehicle: Klucel (hydroxypropylcellulose) (HPC)
[2] = dose: 25.0 mg/kg/injection, vehicle: Klucel (hydroxypropylcellulose) (HPC)
[3] = dose: 50.0 mg/kg/injection, vehicle: Klucel (hydroxypropylcellulose) (HPC)
[4] = dose: 6.25 mg/kg/injection, vehicle: saline
[5] = dose: 12.5 mg/kg/injection, vehicle: saline
[6] = dose: 25.0 mg/kg/injection, vehicle: saline
[7] = dose: 50.0 mg/kg/injection, vehicle: saline
[8] = dose: 100.0 mg/kg/injection, vehicle: Klucel (hydroxypropylcellulose) (HPC)
[9] = dose: 25.0 mg/kg/injection, vehicle: saline with Tween-80
[10] = dose: 50.0 mg/kg/injection, vehicle: saline with Tween-80
[11] = dose: 100.0 mg/kg/injection, vehicle: saline with Tween-80
[12] = dose: 200.0 mg/kg/injection, vehicle: saline with Tween-80
[13] = dose: 400.0 mg/kg/injection, vehicle: saline with Tween-80
[14] = dose: 12.5 mg/kg/injection, vehicle: saline with Tween-80

Measured: T/C

CC1(C)CC(=O)C(CSC(=O)c2ccccc2)C(=O)C1
inactive: dose: 3.13 mg/kg/injection, vehicle: Klucel (hydroxypropylcellulose) (HPC) 101 % of control | dose: 6.25 mg/kg/injection, vehicle: Klucel (hydroxypropylcellulose) (HPC) 95 % of control | [1] 95 % of control | [2] 103 % of control | [3] 103 % of control

O=C1C=C[C@H](O)[C@@]2(CO)O[C@@H]12
inactive: dose: 0.31 mg/kg/injection, vehicle: saline with Tween-80 101 % of control | dose: 0.62 mg/kg/injection, vehicle: saline with Tween-80 101 % of control | dose: 1.25 mg/kg/injection, vehicle: saline with Tween-80 114 % of control | dose: 2.5 mg/kg/injection, vehicle: saline with Tween-80 98 % of control | dose: 5.0 mg/kg/injection, vehicle: saline with Tween-80 102 % of control | dose: 10.0 mg/kg/injection, vehicle: saline with Tween-80 93 % of control

CC(=O)N(C)C
inactive: dose: 122.5 mg/kg/injection, vehicle: saline 88 % of control | dose: 225.0 mg/kg/injection, vehicle: saline 95 % of control | dose: 450.0 mg/kg/injection, vehicle: saline 110 % of control | dose: 900.0 mg/kg/injection, vehicle: saline 100 % of control | dose: 1800.0 mg/kg/injection, vehicle: saline 93 % of control | dose: 3600.0 mg/kg/injection, vehicle: saline 104 % of control

CSC(SC)=C1C(=O)NC(=O)NC1=O
inactive: dose: 3.12 mg/kg/injection, vehicle: saline 103 % of control | [4] 105 % of control | [5] 96 % of control | [6] 112 % of control

Cn1/c2cc/c1=C(\c1ccc(S(=O)(=O)O)cc1)c1ccc([n-]1)/C(c1ccc(S(=O)(=O)O)cc1)=c1/cc/c([nH]1)=C(\c1ccc(S(=O)(=O)O)cc1)c1ccc([n-]1)/C=2c1ccc(S(=O)(=O)O)cc1.O.O=S(=O)(O)C(F)(F)F.[Cu+2]
inactive: [4] 109 % of control | [5] 112 % of control | [6] 116 % of control | [7] 112 % of control

OCC1OC(n2cnc3c(NO)ncnc32)C(O)C1O (stereo unspecified)
inactive: [1] 102 % of control | [2] 97 % of control | [3] 109 % of control | [8] 105 % of control | dose: 200.0 mg/kg/injection, vehicle: Klucel (hydroxypropylcellulose) (HPC) 110 % of control | dose: 400.0 mg/kg/injection, vehicle: Klucel (hydroxypropylcellulose) (HPC) 109 % of control

N=C1CCCS1
inactive: [6] 117 % of control | [7] 122 % of control

CC(Cc1ccc(O)c(O)c1)C(C)Cc1ccc(O)c(O)c1 (stereo unspecified)
inactive: dose: 12.0 mg/kg/injection, vehicle: saline with Tween-80 100 % of control | [9] 113 % of control | [10] 103 % of control | [11] 94 % of control | [12] 104 % of control | [13] 100 % of control

O=C(Nc1cc(Cl)ccc1C(=O)O)c1cccc(C[n+]2ccccc2)c1
inactive: [14] 107 % of control | [9] 102 % of control | [10] 92 % of control | [11] 95 % of control | [12] 100 % of control and 102 % of control

CC(/C=C/c1ccccc1)=Nc1ccccc1
inactive: [14] 109 % of control | [9] 101 % of control | [10] 97 % of control | [11] 99 % of control | [12] 105 % of control

CN(C)P(=O)(Oc1ccccc1)N(C)C
inactive: [14] 113 % of control | [9] 98 % of control | [10] 101 % of control | [11] 115 % of control | [12] 101 % of control | [13] 100 % of control

CC1(C)CC1(Br)Br
inactive: dose: 6.25 mg/kg/injection, vehicle: saline with Tween-80 99 % of control | [14] 96 % of control | [9] 99 % of control | [10] 100 % of control | [11] 115 % of control | [12] 100 % of control

C=C(OP(=O)(OC)OC)Sc1ccccc1C
inactive: dose: 0.06 mg/kg/injection, vehicle: Klucel (hydroxypropylcellulose) (HPC) 105 % of control | dose: 0.12 mg/kg/injection, vehicle: Klucel (hydroxypropylcellulose) (HPC) 104 % of control | dose: 0.25 mg/kg/injection, vehicle: Klucel (hydroxypropylcellulose) (HPC) 110 % of control | dose: 0.37 mg/kg/injection, vehicle: Klucel (hydroxypropylcellulose) (HPC) 100 % of control | dose: 0.5 mg/kg/injection, vehicle: Klucel (hydroxypropylcellulose) (HPC) 89 % of control | dose: 0.75 mg/kg/injection, vehicle: Klucel (hydroxypropylcellulose) (HPC) 91 % of control

COc1cc(C2c3cc4c(cc3C(O)C(CO)C2CO)OCO4)cc(OC)c1OC (stereo unspecified)
inactive: [1] 102 % of control | [2] 104 % of control | [3] 102 % of control | [8] 113 % of control

C/C=C(\C)c1cc(=O)c2c(C)cc3c(c2o1)C(=O)c1c(O)c(C2CC(C)(N(C)C)C(OC(C)=O)C(C)O2)cc(C2CC(N(C)C)C(O)C(C)O2)c1C3=O (stereo unspecified)
inactive: dose: 0.15 mg/kg/injection, vehicle: suspension in saline 101 % of control | dose: 0.31 mg/kg/injection, vehicle: suspension in saline 103 % of control | dose: 0.62 mg/kg/injection, vehicle: suspension in saline 97 % of control | dose: 1.25 mg/kg/injection, vehicle: suspension in saline 107 % of control | dose: 2.5 mg/kg/injection, vehicle: suspension in saline 111 % of control | dose: 5.0 mg/kg/injection, vehicle: suspension in saline 106 % of control

COc1ccc(-c2csc(=[N+]3CCCCC3)s2)cc1
inactive: dose: 1.56 mg/kg/injection, vehicle: water 108 % of control | dose: 3.12 mg/kg/injection, vehicle: water 104 % of control | dose: 6.25 mg/kg/injection, vehicle: water 104 % of control | dose: 12.5 mg/kg/injection, vehicle: water 94 % of control | dose: 25.0 mg/kg/injection, vehicle: water 95 % of control

CCCCCCCCCCCC(=O)NC1CC(O[C@H]2C[C@](O)(C(=O)CO)Cc3c(O)c4c(c(O)c32)C(=O)c2c(OC)cccc2C4=O)OC(C)C1O (stereo partly specified)
inactive: dose: 6.25 mg/kg/injection, vehicle: distilled water + Tween-80 96 % of control | dose: 12.5 mg/kg/injection, vehicle: distilled water + Tween-80 100 % of control | dose: 25.0 mg/kg/injection, vehicle: distilled water + Tween-80 102 % of control | dose: 50.0 mg/kg/injection, vehicle: distilled water + Tween-80 119 % of control
